Assay results from ChEMBL document CHEMBL3217472, “Identification of novel urea derivatives as PTP1B inhibitors: synthesis, biological evaluation and structureactivity relationships” (Medchemcomm, 2013).
The source made the active and inactive calls. The calls are words filed in the database; no cut-off is given here.

Tests used:
[1] = biological target: T1, Tyrosine-protein phosphatase non-receptor type 1 (Homo sapiens) (UniProt P18031); experiment: Inhibition of human recombinant PTP1B using phosphopeptide as substrate at 10 uM after 30 mins by malachite green assay relative to control
T1 sequence (whole entry): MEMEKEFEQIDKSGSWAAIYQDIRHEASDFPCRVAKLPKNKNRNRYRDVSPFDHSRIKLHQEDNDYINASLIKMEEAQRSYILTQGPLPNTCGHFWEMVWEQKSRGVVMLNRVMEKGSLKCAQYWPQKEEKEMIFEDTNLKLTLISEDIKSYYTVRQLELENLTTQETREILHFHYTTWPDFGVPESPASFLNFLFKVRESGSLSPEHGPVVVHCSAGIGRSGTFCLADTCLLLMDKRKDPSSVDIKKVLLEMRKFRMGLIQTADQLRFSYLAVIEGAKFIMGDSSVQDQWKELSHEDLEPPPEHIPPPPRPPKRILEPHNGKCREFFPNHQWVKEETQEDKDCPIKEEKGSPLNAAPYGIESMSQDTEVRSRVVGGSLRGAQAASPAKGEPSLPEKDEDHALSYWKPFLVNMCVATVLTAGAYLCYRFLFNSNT

Rattus norvegicus [2] = experiment: Antihyperglycemic activity in streptozotocin-induced Sprague-Dawley albino rat diabetic model assessed as reduction of blood glucose AUC (0 to 24 hrs) at 100 mg/kg, po by glucometer relative to control; assay type: functional; design: scale not given: the % may be the effect or the level left
Rattus norvegicus [3] = experiment: Antihyperglycemic activity in streptozotocin-induced Sprague-Dawley albino rat diabetic model assessed as reduction of blood glucose AUC (0 to 5 hrs) at 100 mg/kg, po by glucometer relative to control; assay type: functional; design: scale not given: the % may be the effect or the level left
[4] = biological target: T2, Tyrosine-protein phosphatase non-receptor type 1 (Homo sapiens, UniProt P18031); experiment: Inhibition of human recombinant PTP1B using phosphopeptide as substrate after 30 mins by malachite green assay
T2 sequence (P18031 whole entry): T1 sequence (whole entry)

Mus musculus [5] = experiment: Antihyperglycemic activity in C57BL/Ks db/db mouse assessed as reduction of blood glucose level at 30 mg/kg measured from day 8 to day 14; assay type: functional, organism-based; design: dose 30 mg/kg
Mus musculus [6] = experiment: In vivo inhibition of PTP1B in skeletal muscle of C57BL/Ks db/db mouse assessed as upregulation of p-IRSI protein expression at 30 mg/kg, po by Western blot analysis relative to vehicle-treated sham control; assay type: functional, Muscle tissue
Mus musculus [7] = experiment: Antidiabetic activity in C57BL/Ks db/db mouse assessed as improvement of HOMA index at 30 mg/kg relative to vehicle-treated sham control; assay type: functional
Mus musculus [8] = experiment: Antidiabetic activity in C57BL/Ks db/db mouse assessed as restoration of altered insulin level in serum at 30 mg/kg relative to vehicle-treated sham control; assay type: functional
Mus musculus [9] = experiment: Antidiabetic activity in C57BL/Ks db/db mouse assessed as normalization of fasting blood glucose level at 30 mg/kg relative to vehicle-treated sham control; assay type: functional
Mus musculus [10] = experiment: Antidyslipidemic activity in C57BL/Ks db/db mouse assessed as increase in serum HDL-cholesterol level at 30 mg/kg measured on day 10 to 15 relative to vehicle-treated sham control; assay type: functional
Mus musculus [11] = experiment: Antidyslipidemic activity in C57BL/Ks db/db mouse assessed as reduction of serum cholesterol level at 30 mg/kg measured on day 10 to 15 relative to vehicle-treated sham control; assay type: functional
Mus musculus [12] = experiment: Antidyslipidemic activity in C57BL/Ks db/db mouse assessed as reduction of serum triglyceride level at 30 mg/kg measured on day 10 to 15 relative to vehicle-treated sham control; assay type: functional
Mus musculus [13] = experiment: Antihyperglycemic activity in C57BL/Ks db/db mouse assessed as reduction of blood glucose AUC (0 to 120 mins) at 30 mg/kg measured on day 15 by OGTT relative to vehicle-treated sham control; assay type: functional
Mus musculus [14] = experiment: Antihyperglycemic activity in C57BL/Ks db/db mouse assessed as reduction of blood glucose AUC (0 to 120 mins) at 30 mg/kg measured on day 10 by OGTT relative to vehicle-treated sham control; assay type: functional
[15] = biological target: T2, Tyrosine-protein phosphatase non-receptor type 1; experiment: Competitive inhibition of human recombinant PTP1B using IR5 as substrate by Lineweaver-Burk plot analysis
Mus musculus [16] = experiment: Antihyperglycemic activity in C57BL/Ks db/db mouse assessed as reduction of blood glucose level at 10 mg/kg measured from day 6 to day 14; assay type: functional, organism-based; design: dose 10 mg/kg
Mus musculus [17] = experiment: In vivo inhibition of PTP1B in skeletal muscle of C57BL/Ks db/db mouse assessed as upregulation of p-IRSI protein expression at 10 mg/kg, po by Western blot analysis relative to vehicle-treated sham control; assay type: functional, Muscle tissue
Mus musculus [18] = experiment: Antidiabetic activity in C57BL/Ks db/db mouse assessed as improvement of HOMA index at 10 mg/kg relative to vehicle-treated sham control; assay type: functional
Mus musculus [19] = experiment: Antidiabetic activity in C57BL/Ks db/db mouse assessed as restoration of altered insulin level in serum at 10 mg/kg relative to vehicle-treated sham control; assay type: functional
Mus musculus [20] = experiment: Antidiabetic activity in C57BL/Ks db/db mouse assessed as normalization of fasting blood glucose level at 10 mg/kg relative to vehicle-treated sham control; assay type: functional
Mus musculus [21] = experiment: Antidyslipidemic activity in C57BL/Ks db/db mouse assessed as increase in serum HDL-cholesterol level at 10 mg/kg measured on day 10 to 15 relative to vehicle-treated sham control; assay type: functional
Mus musculus [22] = experiment: Antidyslipidemic activity in C57BL/Ks db/db mouse assessed as reduction of serum cholesterol level at 10 mg/kg measured on day 10 to 15 relative to vehicle-treated sham control; assay type: functional
Mus musculus [23] = experiment: Antidyslipidemic activity in C57BL/Ks db/db mouse assessed as reduction of serum triglyceride level at 10 mg/kg measured on day 10 to 15 relative to vehicle-treated sham control; assay type: functional
Mus musculus [24] = experiment: Antihyperglycemic activity in C57BL/Ks db/db mouse assessed as reduction of blood glucose AUC (0 to 120 mins) at 10 mg/kg, po measured on day 15 by OGTT relative to vehicle-treated sham control; assay type: functional
Mus musculus [25] = experiment: Antihyperglycemic activity in C57BL/Ks db/db mouse assessed as reduction of blood glucose AUC (0 to 120 mins) at 10 mg/kg measured on day 10 by OGTT relative to vehicle-treated sham control; assay type: functional

inhibition [1] [%] | SMILES | Activity (Rattus norvegicus [2]) [%] | Activity (Rattus norvegicus [3]) [%] | also measured
18.9 | CC(C)(C)c1cc(CNC(=O)NCc2ccccc2)c(O)c(C(C)(C)C)c1 | – | – | –
68.4 | O=C(NCc1cccc([N+](=O)[O-])c1)NCc1ccc(-c2ccc([N+](=O)[O-])cc2)o1 | 20 | 18.4 | IC50 [4]: 8.06 µM
0.9 | O=C(NCc1ccccc1)NCc1ccc([N+](=O)[O-])cc1 | – | – | –
78.8 | COc1cc(OC)c(CNC(=O)NCc2ccccc2)c(OC)c1 | 18.6 | 16.1 | IC50 [4]: 7.6 µM
40 | O=C(NCc1cccc([N+](=O)[O-])c1)NCc1cccc(-c2cccc([N+](=O)[O-])c2)n1 | – | – | –
21.4 | O=C(NCc1ccccc1)NCc1ccc(-c2ccc([N+](=O)[O-])cc2)o1 | 18.8 | 12.5 | –
2.85 | COc1ccc(CNC(=O)NCc2cccc([N+](=O)[O-])c2)cc1 | – | – | –
– | CN(C)C(=N)NC(=N)N [METFORMIN] | 23.3 | 21 | –
46.8 | O=C(NCc1cccc([N+](=O)[O-])c1)NCc1ccco1 | – | – | –
32.9 | O=C(NCc1cccc(Cl)c1)NCc1cccc([N+](=O)[O-])c1 | – | – | –
2.81 | COc1cc(CNC(=O)NCc2cccc([N+](=O)[O-])c2)cc(OC)c1 | – | – | –
14.9 | COc1cc(CNC(=O)NCc2ccccc2)ccc1O | – | – | –
56.6 | COc1cc(Cl)c(CNC(=O)NCc2cccc([N+](=O)[O-])c2)c(Cl)c1OC | 2.54 | 7.26 | IC50 [4]: 9.91 µM
7.5 | COc1cc(CNC(=O)NCc2cccc([N+](=O)[O-])c2)cc(OC)c1OC | – | – | –
31.2 | O=C(NCc1ccccc1)NCc1ccsc1 | – | – | –
19 | O=C(NCc1ccccc1)NCc1c[nH]c2ccc(Cl)cc12 | – | – | –
2.1 | O=C(NCc1ccccc1)NCc1ccccc1[N+](=O)[O-] | – | – | –
79.4 | O=C(NCc1cccc([N+](=O)[O-])c1)NCc1ccccc1[N+](=O)[O-] | 21.7 | 20.4 | Activity (Mus musculus [5]): Active; fold change (FC) (Mus musculus [6]): 1.25; Efficacy (Mus musculus [7]): 69.7%; Efficacy (Mus musculus [8]): 34.5%; Efficacy (Mus musculus [9]): 52.3%; Efficacy (Mus musculus [10]): 46.8%; Efficacy (Mus musculus [11]): 16.3%; Efficacy (Mus musculus [12]): 8.9%; Efficacy (Mus musculus [13]): 35.9%; Efficacy (Mus musculus [14]): 24.1%; Ki [15]: 7.88 µM; IC50 [4]: 7.47 µM
13.7 | COc1cc(Cl)c(CNC(=O)NCc2ccccc2)c(Cl)c1OC | – | – | –
2.4 | O=C(NCc1ccccc1)NCc1cccc([N+](=O)[O-])c1 | – | – | –
60.9 | CC(=O)Nc1ccc(CNC(=O)NCc2ccccc2)cc1 | 14.8 | 14.2 | IC50 [4]: 9.39 µM
60 | Cc1ccc(C(=O)Nc2ccc(S(=O)(=O)O)c3cc(S(=O)(=O)O)cc(S(=O)(=O)O)c23)cc1NC(=O)c1cccc(NC(=O)Nc2cccc(C(=O)Nc3cc(C(=O)Nc4ccc(S(=O)(=O)O)c5cc(S(=O)(=O)O)cc(S(=O)(=O)O)c45)ccc3C)c2)c1 | – | – | –
– | CCc1ccc(CCOc2ccc(CC3SC(=O)NC3=O)cc2)nc1 (stereo unspecified) [PIOGLITAZONE] | – | – | Activity (Mus musculus [16]): Active; fold change (FC) (Mus musculus [17]): 1.37; Efficacy (Mus musculus [18]): 70.3%; Efficacy (Mus musculus [19]): 46.1%; Efficacy (Mus musculus [20]): 64.7%; Efficacy (Mus musculus [21]): 11.1%; Efficacy (Mus musculus [22]): 9.17%; Efficacy (Mus musculus [23]): 12.6%; Efficacy (Mus musculus [24]): 52.9%; Efficacy (Mus musculus [25]): 40.8%
